The values below come from patent US20070027216A1, “NOVEL HYDROCHLORIDE SALTS OF LEVODOPA” (priority 2005, published 2007).

By solubility is commonly meant how much of the substance goes into solution per volume. Higher therefore signals much dissolved substance.

One series is described as follows: Aqueous solubility. It counts as physicochemical. As to conditions: water, 25 °C; at about 25 degrees C. The method, then: To a slurry containing levodopa (15.1 g, 0.0766 mol) in acetonitrile (750 ml) was added concentrated hydrochloric acid (7.0 mL, 0.0781 mol) dropwise with stirring. Addition of hydrochloric acid to the slurry caused it to form a clear solution followed by precipitation of levodopa hydrochloride. The solid material was collected by filtration and dried under a flow of nitrogen overnight. The solid was characterized using PXRD (Bruker), DSC, TGA and Raman spectroscopy.

The nature of series [1]: In vitro dissolution of fast-dissolve tablets in SGF (simulated gastric fluid). It counts as physicochemical. The settings on record: 50 rpm, FIG. 5; for time to realize >90% dissolved: about 400 mg tablet, target 100 mg levodopa, lactose filler, 200 mL SGF pH 2.0, 37 degrees C., average of N=2, normalized by final concentration. On the procedure: A dissolution study for a levodopa fast-dissolve tablet feasibility study was completed. All tablets were about 400 mg total weight and contained a target of 100 mg levodopa in four forms: levodopa free base, levodopa hydrochloride salt (from Example 1), levodopa free base jet milled (5-10 micrometers), and levodopa free base jet milled granulated with HPC-L solution. The filler for the tablet was Pharmatose DCL 14 (lactose). The dissolution was carried out in 200 mL of SGF (simulated gastric fluid) at 37 degrees C. using an overhead mixer at a speed of 50 rpm. […] In the above described dissolution study, the SGF was prepared using the following preparation: Dissolved 4 grams sodium chloride and 2 grams Triton X-100 in 2000 mL HPLC grade water. Added 1 N hydrochloric acid to the solution until the pH reached 2.0.

The conditions of series [2]: temperature not given; cited from earlier work.

Molecules are shown by their SMILES.

Compound `Cl.NC(Cc1ccc(O)c(O)c1)C(=O)O` (single isomer, unassigned; (-)) [levodopa hydrochloride salt, (−)-2-amino-3-(3,4-dihydroxyphenyl)propanoic acid hydrochloride] came in with a solubility in “Aqueous solubility” of 11 to 16 mg/mL. Further, the “time to realize >90% dissolved” value in series [1] was around 10 min.
In the case of `N[C@@H](Cc1ccc(O)c(O)c1)C(=O)O` [levodopa free base, (−)-2-amino-3-(3,4-dihydroxyphenyl)propanoic acid], the “aqueous solubility of the free base” value in series [2] is “about 1.65 mg/mL”. The “time to realize >90% dissolved” value in series [1] is given as “about 20 minutes”. In series [1] (same tablets, 200 mL SGF, 37 degrees C.), the “time to >90% dissolved, free base versus hydrochloride salt” value is recorded as “about twice as long”.
